Laboratory results reported in patent publication US10570176B2, “Anti-hepatitis B virus X protein polypeptide pharmaceutical” (priority 2015, dated 2020).
Where “and” joins values, the source holds several entries; their conditions need not be identical. Identical values can stand only once. Marks after values point to notes of the source that are not given here. Non-standard residues stand in square brackets, D forms with d. Residues, ends and D or L forms follow the SMILES beside them.

Experiments:
[1] = tested on: HBV transgenic mice; assay: Pathological observation of liver tissue of HBV transgenic mice; format: in vivo; conditions: 5 mg/kg, tail intravenous injection, 3 weeks treatment
Protocol: Prepare D-TTK001 aseptically. Administer 2.5 mg/kg (10 mice) or 5.0 mg/kg (42 mice) based on mice weight through tail intravenous injection in a volume of 50 μL. Administer 50 μL of sterile PBS to blank control group (10 mice). Mice are 6-8 months old, half male and half female. Inject daily for 3 weeks (21 days in total). Take artery blood from mice tail before administration for future measurement of HBV DNA content in mice blood, record as T0 group. Take artery blood from mice tail after one week (T1+ group), two weeks (T2+ group), and three weeks (T3+ group) of administration. Take blood after one week of stopping administration (T4 group). Blood samples were standed in room temperature for 2-4 hours to prepare serum. Store samples in −80° C. refrigerator for future measurement of HBV DNA content in mice blood.
After above experiments on HBV transgenic mice were finished, mice were sacrificed, and liver tissue was taken, fixed with formalin, embed with conventional method, to prepare tissue biopsies, pathological observation was then conducted.

[2] = in vivo; conditions: rat, plasma, iv, 3.5 mg/kg
From the text: Blood samples were collected and placed the heparinized test tubes according to blood collection times.

[3] = biological target: T1, HBx protein (Hepatitis B virus genotype D subtype ayw, UniProt P03165); assay: In vitro binding to recombinantly expressed HBx protein, Biacore 3000
T1 construct: made in house
T1 sequence (P03165 whole entry): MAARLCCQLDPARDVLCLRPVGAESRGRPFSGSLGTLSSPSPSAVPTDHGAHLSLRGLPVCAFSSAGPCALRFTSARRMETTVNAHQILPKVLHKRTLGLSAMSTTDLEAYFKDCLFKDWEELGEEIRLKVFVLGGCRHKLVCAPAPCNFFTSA
Protocol: The recombinant plasmid (pET-30a-HBx) expressing HBx gene was self-constructed and preserved (Zhang H, et al. J Biomed Biotechnol, doi:10.1155/2009/289068), and then expression and purification of HBx were conducted according to above reference for the measurement of in vitro binding ability. Biacore 3000 biomolecular interaction analyzing unit (manufactured by GE Healthcare) was utilized to measure in vitro binding ability of polypeptide D-TTK001 to recombinantly expressed HBx protein. Polypeptide at different concentrations were injected for 180 seconds at a rate of 30 μL/min. In dissociation stage, HBS-EP buffer was injected for 900 seconds at a rate of 30 μL/min, then at a rate of 30 μL/min, 2 shots of 1 mM NaOH were injected for 20 seconds to regenerate the chip. All signals were calibrated using channel 1 as the reference channel. Binding measurement was conducted twice, respectively, wherein in the first measurement, HBX was injected into the channel of the coupled polypeptide and the blank channel at concentrations of 0 nM, 10 nM, 50 nM, 100 nM, 500 nM and 600 nM, respectively. Binding time was 180 seconds and dissociation time was 400 seconds. On chip surface, 1 mM NaOH was injected for 20 seconds at a rate of 30 μL/min for regeneration. In the second measurement, HBX was injected into the channel of coupled polypeptide and the blank channel at concentrations of 0 nM, 10 nM, 50 nM, 588 nM, 1 μM, and 2 μM, respectively. Binding time was 180 seconds and dissociation time was 400 seconds. On chip surface, 1 mM NaOH was injected for 20 seconds at a rate of 30 μL/min for regeneration. Results were kinetically analyzed by BIA Evaluation Software.

[4] = Acute toxicity test in Kunming white mice; format: in vivo; conditions: 500 mg/kg, tail intravenous injection, observed 24 hrs
Protocol: Control group and experimental group each consists of 10 Kunming white mice, with 5 females and 5 males in each group, respectively. Experimental group were injected with polypeptide D-TTK001 with the concentration of 500 mg/kg (10 mg lyophilized polypeptide dissolved in 0.8 mL sterilized distilled water) by tail intravenous injection; control group were injected with 0.8 mL sterilized distilled water. Consecutively observing the mice for 24 hrs. after injection.

[5] = tested on: HepG2-X cells inoculated tumor in nude mice; assay: Survival of nude mice bearing HepG2-X inoculated tumor; format: in vivo; conditions: 0.1 mg/kg or 5.0 mg/kg, tail i.v. daily for 30 days
Protocol: Suspend HepG2-X cells at exponential phase by treating with trypsin, count the number of cells, dilute to 1×10^7 cells/mL with sterile physiological saline, and then store in ice water. Take two female BALB/C mice of 4˜6 weeks age: i) one mouse in control group, inject 0.2 mL of above diluted cells to the armpit of right forelimb for each mouse, then only inject 0.5 mL of sterilized distilled water (without polypeptide drugs); ii) one mouse in experimental group with an administration dose of 10 mg/kg weight. Inject 0.2 mL of above diluted cells to the armpit of right forelimb for each mouse, after 20 days of injection, remove tumor tissue aseptically, cut into small tissue pieces, back inoculate to female BALB/C mice of 4˜6 weeks age for 18 mice in total. After tumor volume (V=L×W^2 0.5) reaches 100 mm^3, divide 18 mice into 3 groups each having 6 mice. The first group is control group, tail intravenous injecting with sterile PBS. […] Inject daily for 30 days, measure mice weight and tumor volume before each injection, and observe survival time of nude mice. After mice dies, perform analysis using Kaplan-Meier method to plot survival curve, Log-Rank is employed for statistical analysis.

Q: Which “ballooning degeneration of hepatocytes in liver tissue” value [1] does the source give for `CSCC[C@@H](NC(=O)[C@H](NC(=O)[C@@H](C)NC(=O)[C@@H](CO)NC(=O)CN)C(C)C)C(=O)N[C@H](Cc1ccccc1)C(=O)N[C@H](CO)C(=O)N[C@H](CO)C(=O)N[C@H](CCCCN)C(=O)N[C@H](CCC(=O)O)C(=O)N[C@H](CCCNC(=N)N)C(=O)NCC(=O)O` [D-TTK001, Gly-D-Ser-D-Ala-D-Val-D-Met-D-Phe-D-Ser-D-Ser-D-Lys-D-Glu-D-Arg-Gly] (H-G[dS][dA][dV][dM][dF][dS][dS][dK][dE][dR]G-OH; N-terminus and C-terminus assumed) here?
A: none of 6 mice in experimental group showed ballooning degeneration of hepatocytes

Q: What about the C0 [2] of the same molecule?
A: 36500 ng/mL

Q: What about the Vd [2] of the same molecule?
A: 0.207 L/kg

Q: And the AUC(0-t) ([2]; AUC0-t, Mean, rats, intravenous injection 3.5 mg/kg, mean of 6)?
A: 20800 ng·h/mL

Q: What about the AUC(0-inf) ([2]; AUC0-∞, Mean, rats, intravenous injection 3.5 mg/kg, mean of 6) of the same molecule?
A: 24100 ng·h/mL

Q: What about the clearance ([2]; CL, Mean, rats, intravenous injection 3.5 mg/kg, mean of 6) of the same molecule?
A: 3 mL/min/kg

Q: What about the Cmax ([2]; Cmax, Mean, rats, intravenous injection 3.5 mg/kg, mean of 6) of the same molecule?
A: 35800 ng/mL

Q: And the half-life ([2]; t½, Mean, rats, intravenous injection 3.5 mg/kg, mean of 6)?
A: 55.3 min

Q: What about the Kd ([3]; KD, Biacore 3000, first and second measurement) of the same molecule?
A: 29.9 nM and 40.3 nM

Q: What about the “in vitro binding to HBx compared with L-polypeptide anti-HBxP1#” value ([3]; comparison in words) of the same molecule?
A: lower than that of L-polypeptide anti-HBxP1#

Q: And the Kd ([3]; in vitro binding to HBx, in vitro binding analysis results)?
A: 35 nM

Q: And the “acute toxicity: behaviors” value [4]?
A: do not have abnormal behaviors

Q: And the “acute toxicity: changes in weight as compared with control group” value [4]?
A: no abnormal changes in weight

Q: What about the “survival of tumor bearing nude mice” value [5] of the same molecule?
A: clearly prolonged
